How the values were obtained:
Type in all cases: in vivo
Boophilus microplus = Boophilus microplus test (BOOPMI injection); settings: application rate of 20 μg/animal, injection into the abdomen
Description: (§1) • Solvent: dimethyl sulphoxide
(§2) To prepare a suitable active compound preparation, 1 part by weight of active compound is mixed with the stated amount of solvent, and the concentrate is diluted with water to the desired concentration.
The solution of active compound is injected into the abdomen (Boophilus microplus), and the animals are transferred into dishes and kept in a climatised room. The activity is assessed by […] of fertile eggs.
After the desired period of time, the effect in % is determined. 100% means that none of the ticks has laid any fertile eggs.

Lucilia cuprina larvae = assay: Lucillia cuprina test (LUCICU); settings: application rate of 100 ppm, treated horse meat
Description: as §1, §2
Vessels containing horse meat treated with the active compound preparation of the desired concentration are populated with Lucilia cuprina larvae.
After the desired period of time, the kill in % is determined. 100% means that all of the larvae have been killed; 0% means that none of the larvae have been killed.

Summer wheat = assay: Container trials with cereal in a greenhouse, use of safeners (mefenpyr 1 day prior to herbicide application); settings: 28 days after application, without safener
Description: Seeds of monocotyledonous and dicotyledonous weed and crop plants are placed in sandy loam in wood fibre pots, covered with soil and cultivated in a greenhouse under good growth conditions. 2 to 3 weeks after sowing, the test plants are treated at the one-leaf stage. The test compounds, formulated as wettable powders (WP), are then, with a water application rate of 600 l/ha (converted), with 0.2% of wetting agent added, sprayed at various dosages onto the green parts of the plants. After the test plants have […], the activity of the preparations is rated visually in comparison to untreated controls (herbicidal activity in percent: 100% activity=the plants have died, 0% activity=like control plants).
If it is additionally to be tested as to whether safeners can improve the plant compatibility of test substances in the case of crop plants, the following options are used for applying the safener: • seeds of the crop plants are, before sowing, dressed with the safener substance (the amount of safener stated in percent, based on the weight of the seed) • before application of the test substances, the crop plants are sprayed with the safener at a certain application rate per hectare (usually 1 day before the application of the test substances) • the safener is applied together with the test substance as a tank mix (the amount of safener stated in g/ha or as a ratio, based on the herbicide). Container Trials with Cereal in a Greenhouse Mefenpyr 1 Day Prior to Herbicide Application

| SMILES | efficacy (no fertile eggs laid) (Boophilus microplus) | kill in % (larvae killed) (Lucilia cuprina larvae) | Summer wheat observed (%) (Summer wheat; application rate 12.5 g a.i./ha) | Summer wheat observed (%) (Summer wheat; application rate 25 g a.i./ha) | Summer wheat observed (%) (Summer wheat; application rate 50 g a.i./ha) |
| --- | --- | --- | --- | --- | --- |
| COC1(C)CCC2(CC1)NC(=O)C(c1c(C)cc(Cl)cc1C)=C2O (mixture of isomers) [I-a-3] | good efficacy | ≥ 80% | – | – | – |
| CCc1cc(C)cc(C)c1C1=C(O)C2(CCC(CC)(OC)CC2)NC1=O (mixture of isomers) [I-a-64] | – | – | 20% | 60% | 70% |
| CCOC(=O)OC1=C(c2c(C)cc(C)cc2C)C(=O)NC12CCC(C)(OC)CC2 (stereo not drawn) [I-c-3] | good efficacy | – | – | – | – |

From patent US8846946B2, “Germinal alkoxy/alkylspirocyclic substituted tetramate derivatives” (Bayer CropScience AG, priority 2008, dated 2014)
